Results on four compounds are retold here after US12692221B2 (priority 2024, dated 2026).

Experiment [1] deals with T1, H2 (h) (Homo sapiens, UniProt P25021).
T1 construct: expressed in transfected cells; host or cells: CHO cells
In words: Radioligand binding H2 (h) (antagonist radioligand), [^125I]APT, CHO cells. As for the experimental part:
(§1) Methods—Binding Assays: In vitro binding assays were performed using human recombinant receptors expressed in mammalian cell lines. Receptors were expressed in either HEK-293 or CHO cells depending on the target, and assay conditions (radioligand, concentration, nonspecific competitor, temperature, and incubation time) were optimized for each receptor. All assays were conducted in triplicate, and specific binding was quantified by scintillation counting as the detection method for each listed assay.
(§2) Specific binding was expressed as a percentage of control-specific binding, and percent inhibition was calculated using the formula in Ex. 8 above. Half-maximal inhibitory concentrations (IC50) were determined by non-linear regression analysis of the inhibition curves using the Hill equation (see Ex. 8). Inhibition constants (Ki) were calculated using the Cheng-Prusoff equation (see Ex. 8). KD values used in these calculations had been previously established for each receptor under the assay conditions (see Table 6). Data analysis was performed using software developed at Cerep and validated against SigmaPlot 4.0 for Windows.

Experiment [2] addresses T2, kappa (KOP) (h) (Homo sapiens, UniProt P41145).
T2 construct: expressed in transfected cells; host or cells: RBL cells
Put plainly: Radioligand binding kappa (KOP) (h) (agonist radioligand), [^3H]U69593, RBL cells. To be noted: kappa (h) (KOP) (agonist radiolig.).

For experiment [3], the target named is T3, 5-HT3 (h) (Homo sapiens, UniProt P46098).
T3 construct: expressed in transfected cells; host or cells: CHO cells
T3 sequence (P46098 24-478): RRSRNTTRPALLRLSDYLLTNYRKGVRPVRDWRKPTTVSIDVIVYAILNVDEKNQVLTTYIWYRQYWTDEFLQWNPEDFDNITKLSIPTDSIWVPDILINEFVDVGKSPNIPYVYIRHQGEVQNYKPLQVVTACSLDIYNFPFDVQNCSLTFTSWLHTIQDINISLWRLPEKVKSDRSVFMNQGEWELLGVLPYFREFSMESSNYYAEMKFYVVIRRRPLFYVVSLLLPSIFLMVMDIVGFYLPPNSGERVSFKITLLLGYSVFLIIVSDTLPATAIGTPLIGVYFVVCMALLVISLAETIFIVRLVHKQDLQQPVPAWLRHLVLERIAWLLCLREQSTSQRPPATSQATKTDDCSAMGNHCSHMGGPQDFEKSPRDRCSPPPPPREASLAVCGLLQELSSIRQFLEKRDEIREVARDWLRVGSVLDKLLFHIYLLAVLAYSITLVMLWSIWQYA
Put plainly: Radioligand binding 5-HT3 (h) (antagonist radioligand), [^3H]BRL 43694, CHO cells. As for the experimental part: as §1, §2

Experiment [4] has as its target T4, COX2(h) (Homo sapiens, UniProt P35354).
T4 construct: host or cells: Sf9 cells
T4 sequence (P35354 18-604): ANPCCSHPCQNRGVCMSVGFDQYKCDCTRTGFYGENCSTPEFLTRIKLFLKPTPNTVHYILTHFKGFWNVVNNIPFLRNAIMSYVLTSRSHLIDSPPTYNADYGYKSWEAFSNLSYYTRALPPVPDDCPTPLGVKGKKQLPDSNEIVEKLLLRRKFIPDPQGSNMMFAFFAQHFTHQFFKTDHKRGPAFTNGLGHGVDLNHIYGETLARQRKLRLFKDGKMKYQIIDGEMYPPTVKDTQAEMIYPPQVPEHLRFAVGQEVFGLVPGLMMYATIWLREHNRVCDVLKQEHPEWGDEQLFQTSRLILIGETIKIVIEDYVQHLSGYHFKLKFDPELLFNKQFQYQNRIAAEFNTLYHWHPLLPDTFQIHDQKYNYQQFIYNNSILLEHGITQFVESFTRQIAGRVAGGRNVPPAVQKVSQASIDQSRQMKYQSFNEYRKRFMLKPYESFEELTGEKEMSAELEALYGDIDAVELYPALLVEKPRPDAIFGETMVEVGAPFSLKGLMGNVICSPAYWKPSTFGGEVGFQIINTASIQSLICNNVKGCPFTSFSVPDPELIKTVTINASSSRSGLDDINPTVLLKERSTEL
Put plainly: Enzyme assay COX2(h), arachidonic acid + ADHP, fluorimetry. The format is biochemical. As for the experimental part: Methods—Enzyme and Uptake Assays: In vitro enzyme and uptake assays were conducted by Eurofins Discovery using human recombinant enzymes expressed in various mammalian and insect cell lines. Enzymatic activity was measured using appropriate substrates or tracers under conditions optimized for each target, as detailed in Table 7. Reactions were incubated at room temperature for a defined duration and terminated according to established protocols. The measured components (either enzymatic products or remaining substrate) were quantified using fluorimetry, photometry, scintillation counting, or LANCE technology, depending on the assay. Assay-specific parameters, including substrate identity, cell line source, incubation time, and detection method, are provided in Table 7.
All measurements were performed in technical replicates to ensure reproducibility and data quality.
Results were expressed both as a percentage of control-specific activity and as percent inhibition of control-specific activity. Percent activity was calculated as (measured specific activity/control specific activity)×100, and percent inhibition as 100−[(measured specific activity/control specific activity)×100], based on values obtained in the presence of test compounds. IC50 and EC50 values, along with Hill coefficients (nH), were determined by nonlinear regression analysis of inhibition or concentration-response curves generated from mean replicate values. Hill curve fitting was performed as previously described using software developed at Cerep and validated against SigmaPlot® 4.0 for Windows® (© 1997 by SPSS Inc.).

Experiment [5] concerns the target 5-HT2A (Homo sapiens, UniProt P28223). In words: IP-One HTRF IP-1 accumulation functional assay, 5-HT2A-expressing HEK293. Format: cell-based. Also on record: host or cells: HEK293. As for the experimental part: Methods (5-HT2A and 5-HT2C IP-One Functional Activity Assays): Intracellular accumulation of IP-1 was measured using an IP-One HTRF assay kit (Cat. #62IPAPEJ, Cisbio) at WuXi AppTec Co. Ltd. (Hong Kong) Discovery Biology Unit according to their standard protocols. Briefly, the reference compounds and screening compounds were 3.16-fold serially diluted in 100% DMSO for 10 points using Bravo. 70 nL of compounds were added to the assay plate using Echo555. Added 14 μL/7500 cells/well of 5-HT2A-expressing HEK293 or 5-HT2C-expressing HEK293 to the assay plate and incubate for 60 min at 37° C. Added 3 μL of IP-1 d2 Reagent working solution and 3 μL of IP-1 Tb Cryptate Antibody working solution to all wells. The plates were incubated for 1 hour at room temperature and read for fluorescence at 620 nm and 665 nm on an EnVision Multimode Plate Reader (PerkinElmer). The ratio of the acceptor and donor emission signals (665/620) were calculated for each individual well and substituted into the standard curve to obtain the log concentration of IP level. After converting to the antilog base IP-1, the average background control signal was subtracted from each well and values were normalized to the maximal response of 5-HT at 3 μM (100%). % MAX was calculated by taking the average normalized maximal response for each compound at the highest concentration tested. The data were analyzed using the four-parameter nonlinear regression curve-fitting function in GraphPad Prism 5 (GraphPad Software, San Diego, CA) to generate potency (EC50) values. The represented plots show normalized IP-1 values versus compound concentrations; the corresponding numerical data are parameter estimates for the concentration-response curve using the four-parameter nonlinear regression curve-fitting function in GraphPad Prism 10.
On the technique in general: TR-FRET usually uses a lanthanide donor and a delayed reading to cut background.

T1 sequence (P25021 whole entry): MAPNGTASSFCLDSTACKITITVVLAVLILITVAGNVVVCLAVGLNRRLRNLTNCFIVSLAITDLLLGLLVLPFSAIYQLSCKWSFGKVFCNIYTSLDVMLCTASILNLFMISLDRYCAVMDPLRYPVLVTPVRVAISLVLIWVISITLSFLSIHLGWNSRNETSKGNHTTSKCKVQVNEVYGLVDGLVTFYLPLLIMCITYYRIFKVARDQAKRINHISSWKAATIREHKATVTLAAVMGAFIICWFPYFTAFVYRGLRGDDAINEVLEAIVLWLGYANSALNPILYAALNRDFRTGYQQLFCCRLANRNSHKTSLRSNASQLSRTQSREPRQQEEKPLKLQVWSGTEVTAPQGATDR
5-HT2A, sequence (P28223 whole entry, looked up): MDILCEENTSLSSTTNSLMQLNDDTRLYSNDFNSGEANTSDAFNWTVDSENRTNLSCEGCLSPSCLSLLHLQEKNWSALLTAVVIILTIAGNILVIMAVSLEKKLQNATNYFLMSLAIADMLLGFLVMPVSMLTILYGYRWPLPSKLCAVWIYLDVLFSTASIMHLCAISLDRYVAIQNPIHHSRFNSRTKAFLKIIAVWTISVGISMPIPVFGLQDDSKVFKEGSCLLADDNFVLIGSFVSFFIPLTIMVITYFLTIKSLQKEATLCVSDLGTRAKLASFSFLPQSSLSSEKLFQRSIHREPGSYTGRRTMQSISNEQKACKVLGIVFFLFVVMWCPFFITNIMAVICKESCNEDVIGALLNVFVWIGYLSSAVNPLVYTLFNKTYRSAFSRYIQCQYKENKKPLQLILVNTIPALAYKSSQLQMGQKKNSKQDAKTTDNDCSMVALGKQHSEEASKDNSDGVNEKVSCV
T2 sequence (P41145 whole entry): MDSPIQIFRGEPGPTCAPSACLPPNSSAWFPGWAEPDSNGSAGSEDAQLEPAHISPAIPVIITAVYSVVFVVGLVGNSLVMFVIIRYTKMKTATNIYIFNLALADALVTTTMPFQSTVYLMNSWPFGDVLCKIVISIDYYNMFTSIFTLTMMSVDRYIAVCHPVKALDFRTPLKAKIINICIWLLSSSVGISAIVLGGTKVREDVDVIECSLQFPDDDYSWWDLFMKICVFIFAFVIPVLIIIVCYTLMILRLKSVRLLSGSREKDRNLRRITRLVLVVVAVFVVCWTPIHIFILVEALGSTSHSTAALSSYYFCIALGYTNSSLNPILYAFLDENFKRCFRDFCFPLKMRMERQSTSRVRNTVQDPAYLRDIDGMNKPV

Regarding `COCc1cc(CCN)c(O)cc1CC(C)C` [2CiBu-2OH-5MM, 2-(2-aminoethyl)-5-isobutyl-4-(methoxymethyl)phenol], the “Mean Percent Inhibition of Control Specific Binding” value (“Mean Percent Inhibition” for short) is recorded as 12.5% in experiment [1], 28.2% in experiment [2], −3.9% in experiment [3] and 10.2% in experiment [4].
Take `COCCc1cc(CCN)c(OC)cc1Br` [Compound 2CB-5ME, reference compound]: the “Mean Percent Inhibition” value in experiment [1] is −0.6%; in experiment [2], 11.2%; in experiment [3] it was −1.6%; in experiment [4], −10.4%. In experiment [5], a half-maximal effect (EC50) was put at 227 nM.
For `COCc1cc(CCN)c(OC)cc1Br` [Compound 2CB-5MM, 2-(4-bromo-2-methoxy-5-(methoxymethyl)phenyl)ethan-1-amine] the same measures were −14.7%, 11.4%, 11.6%, −8.0% and 59.1 nM.
On to `COCc1cc(CCN)c(OC)cc1CC(C)C` [Compound 2CiBu-5MM, 2-[4-isobutyl-2-methoxy-5-(methoxymethyl)phenyl]ethanamine], for which the “Mean Percent Inhibition” value is −16.5% in experiment [1], 29.8% in experiment [2], 2.6% in experiment [3] and −7.0% in experiment [4]. The response in experiment [5] was half-maximal at 341 nM (EC50).
